# Assay results as given in patent publication US20180305329A1, “XANTHINE COMPOUND AND USE THEREOF” (SUMITOMO CHEMICAL COMPANY, LIMITED, priority 2015, published 2018).
# Legend:
# [1] = Spectroscopic properties: quantum efficiency (QE-1100); assay type: physicochemical; conditions: fluorescence
# Source text: Quantum Efficiency (QE): QE-1100 (Otsuka Electronics Co., Ltd.)
# [2] = test system: human and rat CYP3A; experiment: Molecular species selectivity evaluation, overall conclusion; assay type: in vitro ADME; conditions: conclusion from Tables 2 and 3
# Procedure: (§1) A 100 mM phosphate buffer solution (pH 7.4) containing 3 μM of the compound (2) synthesized according to Example 2, 1 mM of NADPH (Wako Pure Chemical Industries, Ltd.) and 0.1% of DMSO was prepared. In each of the wells of a 96-well plate, 2 μL of each microsome from recombinant insect cell expressing different type of molecular species of CYP (CYP 2 pmol, BD Supersomes™, Nippon BD) was placed, followed by addition of 198 μL of the above-described phosphate buffer solution to start the reaction, which was incubated at 37° C. for 20 minutes. The reaction was stopped by adding 100 μL of acetonitrile (Nacalai Tesque, Inc.), and the fluorescence intensity of the obtained reaction solution was measured at the fluorescence wavelength of 520 nm with an excitation wavelength of 482 nm. A calibration curve was prepared by using the 0 μM, 0.01 μM, 0.05 μM, 0.1 μM, 0.50 μM and 1 μM solutions (100 mM phosphate buffer/acetonitrile=2/1) of the compound (1).
# [3] = biological target: T1, rat CYP3A1 (Rattus norvegicus, UniProt P04800); experiment: Metabolism test with recombinant CYP microsomes (molecular species selectivity); assay type: in vitro ADME; conditions: rat CYP3A1 Supersomes, CYP 2 pmol; 3 μM compound (2); 1 mM NADPH; pH 7.4; 37° C., 20 minutes; mean ± SD
# T1 construct: purchased Nippon BD (BD Supersomes); host or cells: recombinant insect cells (microsomes)
# T1 sequence (P04800 1-504): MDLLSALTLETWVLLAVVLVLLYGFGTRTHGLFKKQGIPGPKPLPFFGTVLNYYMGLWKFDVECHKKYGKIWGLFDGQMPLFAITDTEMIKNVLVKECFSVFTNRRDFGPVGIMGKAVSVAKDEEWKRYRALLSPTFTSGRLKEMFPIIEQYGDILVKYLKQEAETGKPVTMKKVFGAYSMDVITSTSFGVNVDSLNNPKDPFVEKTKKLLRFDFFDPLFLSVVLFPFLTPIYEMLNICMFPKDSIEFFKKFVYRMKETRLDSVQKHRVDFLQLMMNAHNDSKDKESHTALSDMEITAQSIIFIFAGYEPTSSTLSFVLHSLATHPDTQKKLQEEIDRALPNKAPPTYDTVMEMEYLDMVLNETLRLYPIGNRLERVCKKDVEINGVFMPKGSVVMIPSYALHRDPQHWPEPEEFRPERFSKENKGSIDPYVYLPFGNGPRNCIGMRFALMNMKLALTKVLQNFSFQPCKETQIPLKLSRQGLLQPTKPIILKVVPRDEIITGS
# Procedure: as §1
# [4] = biological target: T2, human CYP3A4 (Homo sapiens, UniProt P08684); experiment: as above; assay type: in vitro ADME; conditions: human CYP3A4 Supersomes, CYP 2 pmol; 3 μM compound (2); 1 mM NADPH; pH 7.4; 37° C., 20 minutes; mean ± SD
# T2 construct: purchased Nippon BD (BD Supersomes); host or cells: recombinant insect cells (microsomes)
# T2 sequence (P08684 whole entry): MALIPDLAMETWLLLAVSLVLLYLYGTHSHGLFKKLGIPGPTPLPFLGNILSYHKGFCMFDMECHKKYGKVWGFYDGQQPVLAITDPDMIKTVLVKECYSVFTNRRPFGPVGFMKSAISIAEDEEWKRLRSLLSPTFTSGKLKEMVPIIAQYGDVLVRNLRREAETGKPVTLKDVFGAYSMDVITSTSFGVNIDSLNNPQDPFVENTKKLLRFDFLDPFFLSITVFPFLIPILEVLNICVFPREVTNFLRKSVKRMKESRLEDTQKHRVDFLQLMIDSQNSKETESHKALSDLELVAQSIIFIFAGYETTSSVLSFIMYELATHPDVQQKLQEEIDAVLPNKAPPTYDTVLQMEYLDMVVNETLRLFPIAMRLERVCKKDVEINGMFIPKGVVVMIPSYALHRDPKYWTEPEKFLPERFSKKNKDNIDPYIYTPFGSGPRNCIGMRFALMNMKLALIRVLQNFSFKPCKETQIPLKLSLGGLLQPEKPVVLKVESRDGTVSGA
# Procedure: as §1
# [5] = biological target: T3, human CYP2E1 (Homo sapiens, UniProt P05181); experiment: as above; assay type: in vitro ADME; conditions: human CYP2E1 Supersomes, CYP 2 pmol; 3 μM compound (2); 1 mM NADPH; pH 7.4; 37° C., 20 minutes; mean ± SD
# T3 construct: purchased Nippon BD (BD Supersomes); host or cells: recombinant insect cells (microsomes)
# T3 sequence (P05181 whole entry): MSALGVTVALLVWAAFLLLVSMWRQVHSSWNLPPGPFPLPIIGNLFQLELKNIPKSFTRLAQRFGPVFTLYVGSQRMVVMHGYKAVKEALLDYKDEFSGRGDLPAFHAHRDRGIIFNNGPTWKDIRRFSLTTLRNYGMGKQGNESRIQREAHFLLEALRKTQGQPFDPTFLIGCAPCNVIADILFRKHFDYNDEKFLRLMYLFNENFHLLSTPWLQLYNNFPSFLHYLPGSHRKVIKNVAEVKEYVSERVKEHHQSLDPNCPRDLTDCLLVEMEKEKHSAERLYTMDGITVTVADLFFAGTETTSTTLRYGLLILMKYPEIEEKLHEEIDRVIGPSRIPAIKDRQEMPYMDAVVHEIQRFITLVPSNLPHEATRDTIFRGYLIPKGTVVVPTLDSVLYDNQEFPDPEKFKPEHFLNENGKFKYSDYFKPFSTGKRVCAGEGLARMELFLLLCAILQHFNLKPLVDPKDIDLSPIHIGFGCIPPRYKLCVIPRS
# Procedure: as §1
# [6] = biological target: T4, rat CYP2D1 (Rattus norvegicus, UniProt P10633); experiment: as above; assay type: in vitro ADME; conditions: rat CYP2D1 Supersomes, CYP 2 pmol; 3 μM compound (2); 1 mM NADPH; pH 7.4; 37° C., 20 minutes; mean ± SD
# T4 construct: purchased Nippon BD (BD Supersomes); host or cells: recombinant insect cells (microsomes)
# T4 sequence (P10633 1-504): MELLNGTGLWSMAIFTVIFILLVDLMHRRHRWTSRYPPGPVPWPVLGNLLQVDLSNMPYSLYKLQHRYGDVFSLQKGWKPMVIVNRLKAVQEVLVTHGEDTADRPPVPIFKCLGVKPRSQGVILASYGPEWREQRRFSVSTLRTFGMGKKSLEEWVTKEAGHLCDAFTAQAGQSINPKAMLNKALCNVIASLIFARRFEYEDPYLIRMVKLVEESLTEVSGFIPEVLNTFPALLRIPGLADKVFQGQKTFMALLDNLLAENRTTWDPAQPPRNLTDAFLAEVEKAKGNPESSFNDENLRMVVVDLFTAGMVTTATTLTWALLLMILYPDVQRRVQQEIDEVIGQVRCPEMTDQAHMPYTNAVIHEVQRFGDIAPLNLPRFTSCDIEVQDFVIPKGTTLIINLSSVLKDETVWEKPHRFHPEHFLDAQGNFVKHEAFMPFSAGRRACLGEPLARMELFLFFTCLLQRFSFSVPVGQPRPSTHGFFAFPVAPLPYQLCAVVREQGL
# Procedure: as §1
# [7] = biological target: T5, rat CYP3A2 (Rattus norvegicus, UniProt P05183); experiment: as above; assay type: in vitro ADME; conditions: rat CYP3A2 Supersomes, CYP 2 pmol; 3 μM compound (2); 1 mM NADPH; pH 7.4; 37° C., 20 minutes; mean ± SD
# T5 construct: purchased Nippon BD (BD Supersomes); host or cells: recombinant insect cells (microsomes)
# T5 sequence (P05183 1-504): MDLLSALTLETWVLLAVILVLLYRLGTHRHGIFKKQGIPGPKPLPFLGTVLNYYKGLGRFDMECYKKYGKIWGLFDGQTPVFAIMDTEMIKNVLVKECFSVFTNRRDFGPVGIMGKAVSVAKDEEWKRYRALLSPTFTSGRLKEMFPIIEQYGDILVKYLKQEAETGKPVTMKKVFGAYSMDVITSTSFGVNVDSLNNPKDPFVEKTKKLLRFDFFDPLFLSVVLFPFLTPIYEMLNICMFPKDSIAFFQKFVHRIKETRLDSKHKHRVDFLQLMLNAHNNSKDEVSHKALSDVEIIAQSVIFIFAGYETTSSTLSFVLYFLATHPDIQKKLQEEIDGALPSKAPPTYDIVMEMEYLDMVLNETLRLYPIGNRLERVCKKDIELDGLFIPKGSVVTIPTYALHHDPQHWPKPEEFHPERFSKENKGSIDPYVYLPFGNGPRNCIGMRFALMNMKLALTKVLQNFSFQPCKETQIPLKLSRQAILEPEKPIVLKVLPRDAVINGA
# Procedure: as §1
Quantum Efficiency [1],amount of the compound (1) produced by reacting the compound (2) with CYP [3],amount of the compound (1) produced by reacting the compound (2) with CYP [4],amount of the compound (1) produced by reacting the compound (2) with CYP [5],amount of the compound (1) produced by reacting the compound (2) with CYP [6],amount of the compound (1) produced by reacting the compound (2) with CYP [7],Compound,CYP molecular species selectivity as substrate [2]
85.3%,–,–,–,–,–,"COc1ccc(-c2c3ccc(=O)cc-3oc3cc(O)ccc23)c(C)c1 [Compound (1), 6-hydroxy-9-(4-methoxy-2-methylphenyl)-3H-xanthen-3-one]",–
20.6%,0.2190 ± 0.0095 (3) pmol/min/mg protein,2.4913 ± 0.0497 (3) pmol/min/mg protein,0.0038 ± 0.0052 (3) pmol/min/mg protein,0.0151 ± 0.0081 (3) pmol/min/mg protein,0.0912 ± 0.0105 (3) pmol/min/mg protein,"COc1ccc(-c2c3ccc(=O)cc-3oc3cc(OCc4cc(C(F)(F)F)ccc4C(F)(F)F)ccc23)c(C)c1 [Compound (2), 9-(4-methoxy-2-methylphenyl)-6-bis(2,5-trifluoromethyl)benzyloxy-3H-xanthen-3-one]",substrate specific to human and rat CYP3A
